Assay results taken from ChEMBL document CHEMBL4382281, “ASK1: A Therapeutic Target for the Treatment of Multiple Diseases” (ACS Med Chem Lett, 2019).

Columns and labels:
[1] = target: T1, Mitogen-activated protein kinase kinase kinase 5 (Homo sapiens, UniProt Q99683); assay: Inhibition of human ASK1 using MBP as substrate measured in presence of [gamma-33P]-ATP
T1 sequence (Q99683 whole entry): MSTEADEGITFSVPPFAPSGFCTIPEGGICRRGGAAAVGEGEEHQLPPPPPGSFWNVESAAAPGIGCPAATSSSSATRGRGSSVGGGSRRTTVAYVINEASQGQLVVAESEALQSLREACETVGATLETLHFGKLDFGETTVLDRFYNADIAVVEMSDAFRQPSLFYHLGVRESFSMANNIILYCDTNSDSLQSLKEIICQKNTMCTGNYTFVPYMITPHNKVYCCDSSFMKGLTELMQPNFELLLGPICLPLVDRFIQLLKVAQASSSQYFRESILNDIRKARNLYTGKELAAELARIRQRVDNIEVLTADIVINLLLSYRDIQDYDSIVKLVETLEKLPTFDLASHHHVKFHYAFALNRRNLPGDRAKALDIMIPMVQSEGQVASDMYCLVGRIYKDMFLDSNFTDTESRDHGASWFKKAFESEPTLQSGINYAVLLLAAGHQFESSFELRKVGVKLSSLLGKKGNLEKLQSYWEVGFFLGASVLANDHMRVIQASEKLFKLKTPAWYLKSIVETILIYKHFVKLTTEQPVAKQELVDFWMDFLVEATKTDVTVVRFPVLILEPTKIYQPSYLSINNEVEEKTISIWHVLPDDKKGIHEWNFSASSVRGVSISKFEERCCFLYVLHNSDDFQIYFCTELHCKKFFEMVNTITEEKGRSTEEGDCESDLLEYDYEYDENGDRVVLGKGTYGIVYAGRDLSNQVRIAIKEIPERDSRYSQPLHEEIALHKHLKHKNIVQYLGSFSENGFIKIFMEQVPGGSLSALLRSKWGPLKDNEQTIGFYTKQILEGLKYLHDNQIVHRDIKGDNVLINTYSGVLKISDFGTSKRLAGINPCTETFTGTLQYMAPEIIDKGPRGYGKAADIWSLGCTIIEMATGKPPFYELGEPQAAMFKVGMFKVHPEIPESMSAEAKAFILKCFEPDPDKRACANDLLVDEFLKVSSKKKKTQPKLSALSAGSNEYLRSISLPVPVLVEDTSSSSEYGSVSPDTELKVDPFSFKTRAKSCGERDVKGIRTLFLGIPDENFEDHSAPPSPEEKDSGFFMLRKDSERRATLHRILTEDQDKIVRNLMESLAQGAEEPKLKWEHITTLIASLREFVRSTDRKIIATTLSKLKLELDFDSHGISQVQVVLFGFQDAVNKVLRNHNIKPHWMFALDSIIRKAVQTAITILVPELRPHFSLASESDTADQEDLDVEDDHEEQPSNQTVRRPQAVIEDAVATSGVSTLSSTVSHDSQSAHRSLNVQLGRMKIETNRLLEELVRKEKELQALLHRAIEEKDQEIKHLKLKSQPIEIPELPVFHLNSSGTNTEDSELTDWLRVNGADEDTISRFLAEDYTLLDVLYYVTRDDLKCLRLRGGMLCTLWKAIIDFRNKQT

[2] = target: T1, Mitogen-activated protein kinase kinase kinase 5; assay: Inhibition of full-length human GST-tagged ASK1 expressed in baculovirus expression system using biotinylated STK Substrate 3 preincubated for 10 mins followed by ATP addition and measured after 5 hrs by TR-FRET assay
[3] = target: T1, Mitogen-activated protein kinase kinase kinase 5; assay: Inhibition of recombinant V5-tagged ASK1 (unknown origin) expressed in HEK293 cells assessed as reduction in ASK1 autophosphorylation at T838 residue after 1 hr by MSD assay; assay type: cell-based

| IC50 [1] [µM] | IC50 [2] [µM] | IC50 [3] [µM] | Structure (SMILES) |
| --- | --- | --- | --- |
| ≤ 0.1 | ≤ 0.1 | ≤ 1 | Cc1ccc2c(c1)C(=O)Nc1cccc(n1)-c1nncn1CCCCO2 |
|  | 0.1 to 1 | > 10 | O=C1Nc2cccc(n2)-c2nncn2C/C=C/COc2c(Br)cccc21 |
| ≤ 0.1 | ≤ 0.1 | ≤ 1 | Cc1ncn(-c2ccc3c(c2)C(=O)Nc2cccc(n2)-c2nncn2CCCCO3)c1C |
